Experimental data reported in ChEMBL document CHEMBL1140731 (J Med Chem, 2008).
Converted amounts (≈) assume the structure as drawn. The source made the active and inactive calls. No cut-off for these calls is given here.

What was measured:
[1] = molecular target: Transient receptor potential cation channel subfamily V member 1 (Homo sapiens, UniProt Q8NER1); test: Blockade of human TRPV1 receptor assessed as inhibition of capsaicin-induced calcium flux
[2] = Half life in dog at 5 umol/kg, iv administered in PEG400; format: ADME, organism-based, Canis lupus familiaris; details: in vivo
[3] = Permeability across human Caco-2 cells; format: ADME, cell-based
[4] = Volume of distribution beta in rat at 10 umol/kg, iv administered in PEG400; format: ADME, organism-based; details: in vivo, read-out: Vbeta
[5] = Oral bioavailability in monkey at 10 umol/kg administered in PEG400; format: ADME, organism-based, Macaca mulatta; details: rhesus monkey, in vivo
[6] = Oral bioavailability in rat at 10 umol/kg administered in PEG400; format: ADME, organism-based; details: in vivo
[7] = Cmax in dog at 5 umol/kg, po administered in oleic acid/cremophor/PEG400 (80:10:10); details: in vivo
[8] = Oral bioavailability in dog at 5 umol/kg administered in PEG400; details: in vivo
[9] = Aqueous solubility at pH 1; format: physicochemical; details: buffer
[10] = Cmax in dog at 5 umol/kg, po administered in PEG400; details: in vivo
[11] = Volume of distribution beta in monkey at 5 umol/kg, iv administered in PEG400; format: ADME, organism-based, Macaca mulatta; details: rhesus monkey, in vivo, read-out: Vbeta
[12] = Ratio of drug level in brain to plasma in Sprague-Dawley rat; format: ADME; details: read-out: BPR
[13] = Volume of distribution beta in dog at 5 umol/kg, iv administered in PEG400; format: ADME, organism-based, Canis lupus familiaris; details: in vivo, read-out: Vbeta
[14] = Cmax in monkey at 10 umol/kg, po administered in PEG400; format: ADME, organism-based, Macaca mulatta; set-up: dose 10 umol/kg, route oral; details: rhesus monkey, in vivo
[15] = Oral bioavailability in dog at 5 umol/kg administered in oleic acid/cremophor/PEG400 (80:10:10); details: in vivo
[16] = Aqueous solubility at pH 6.8; format: physicochemical; details: buffer
[17] = species on record: Rattus norvegicus; test: Decrease in carrageenan-induced thermal hyperalgesia in Sprague-Dawley rat; format: functional
[18] = Half life in rat at 10 umol/kg, iv administered in PEG400; format: ADME, organism-based; details: in vivo
[19] = Cmax in rat at 10 umol/kg, po administered in PEG400; format: ADME, organism-based; set-up: dose 10 umol/kg, route oral; details: in vivo
[20] = Half life in monkey at 5 umol/kg, iv administered in PEG400; format: ADME, organism-based, Macaca mulatta; details: rhesus monkey, in vivo
[21] = system: Rattus norvegicus; test: Decrease in carrageenan-induced thermal hyperalgesia in Sprague-Dawley rat at 100 umol/kg; format: functional, organism-based

Transient receptor potential cation channel subfamily V member 1, sequence (Q8NER1 whole entry): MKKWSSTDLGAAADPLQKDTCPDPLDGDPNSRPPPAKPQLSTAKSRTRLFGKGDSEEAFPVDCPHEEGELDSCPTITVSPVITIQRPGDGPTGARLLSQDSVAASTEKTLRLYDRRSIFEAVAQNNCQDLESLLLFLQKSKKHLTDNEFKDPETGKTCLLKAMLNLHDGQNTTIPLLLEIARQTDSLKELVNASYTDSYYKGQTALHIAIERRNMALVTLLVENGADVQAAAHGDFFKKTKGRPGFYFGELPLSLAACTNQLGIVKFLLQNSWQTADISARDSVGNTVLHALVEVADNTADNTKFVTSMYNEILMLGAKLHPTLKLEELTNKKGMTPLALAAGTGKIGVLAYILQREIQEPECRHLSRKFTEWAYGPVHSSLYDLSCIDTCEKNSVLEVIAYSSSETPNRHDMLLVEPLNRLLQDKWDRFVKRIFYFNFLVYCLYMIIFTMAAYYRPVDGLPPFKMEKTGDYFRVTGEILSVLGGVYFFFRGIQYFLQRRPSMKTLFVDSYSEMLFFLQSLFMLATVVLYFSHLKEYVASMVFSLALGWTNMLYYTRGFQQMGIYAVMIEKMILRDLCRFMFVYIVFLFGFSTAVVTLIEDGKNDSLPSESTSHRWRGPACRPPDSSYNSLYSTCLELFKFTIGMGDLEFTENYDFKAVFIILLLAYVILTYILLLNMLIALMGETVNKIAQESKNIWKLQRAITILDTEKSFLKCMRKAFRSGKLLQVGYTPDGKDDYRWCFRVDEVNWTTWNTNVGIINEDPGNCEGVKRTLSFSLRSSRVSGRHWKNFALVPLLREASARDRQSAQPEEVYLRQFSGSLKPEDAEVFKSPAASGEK

SMILES | IC50 [1] | also measured
CC(C)(CO)c1ccc2c(c1)CC[C@H]2NC(=O)Nc1cccc2[nH]ncc12 | 127 nM | 
CC(C)(C)c1ccc2c(c1)CC(F)C2NC(=O)Nc1cccc2[nH]ncc12 (stereo unspecified) | 35 nM | 
O=C(Nc1cccc2[nH]ncc12)NC1CCc2c1cccc2N1CCOCC1 (stereo unspecified) | 65 nM | 
CC(C)(C)c1ccc2c(c1)CC(F)(F)C2NC(=O)Nc1cccc2[nH]ncc12 (stereo unspecified) | 216 nM | 
Cc1ccc2c(c1)C(NC(=O)Nc1cccc3[nH]ncc13)CC2 (stereo unspecified) | 7200 nM | 
CC(C)(C)c1ccc2c(c1)CC[C@H]2N/C(=N/C#N)Nc1cccc2[nH]ncc12 | 34 nM | 
Cc1ccc2c(c1)CCC2NC(=O)Nc1cccc2[nH]ncc12 (stereo unspecified) | 11 nM | 
Cc1cccc2c1C(NC(=O)Nc1cccc3[nH]ncc13)CC2 (stereo unspecified) | 595 nM | 
O=C(Nc1cccc2[nH]ncc12)NC1CCc2cc(N3CCCCC3)ccc21 (stereo unspecified) | 14 nM | 
CC(C)(C#N)c1cccc2c1CCC2NC(=O)Nc1cccc2[nH]ncc12 (stereo unspecified) | 19 nM | 
O=C(Nc1cccc2[nH]ncc12)NC1CCOc2cc(C(F)(F)F)ccc21 (stereo unspecified) | 11 nM | 
O=C(Nc1cccc2[nH]ncc12)NC1CCc2c1cccc2N1CCCC1 (stereo unspecified) | 21 nM | 
O=C(Nc1cccc2[nH]ncc12)NC1CCc2ccccc21 (stereo unspecified) | 151 nM | 
O=C(Nc1cccc2[nH]ncc12)NC1CCc2ncccc21 (stereo unspecified) | 5820 nM | 
O=C(Nc1cccc2[nH]ncc12)NC1CCc2cc(F)ccc21 (stereo unspecified) | 52 nM | 
Cc1cccc2c1CCC2NC(=O)Nc1cccc2[nH]ncc12 (stereo unspecified) | 46 nM | 
CC(C)(C)c1ccc2c(c1)CC[C@H]2NC(=S)Nc1cccc2[nH]ncc12 | 97 nM | 
CC(C)(C)c1ccc2c(c1)CC[C@H]2NC(=O)Nc1cccc2[nH]ncc12 [ABT-102] |  | half-life [2]: 1.8 h; Papp [3]: > 18 ×10⁻⁶ cm/s; Vd [4]: 2.8 L/kg; bioavailability [5]: 25%; bioavailability [6]: 70%; Cmax [7]: 650 ng/mL; bioavailability [8]: 22%; Solubility [9]: 0.102 µg/mL (≈ 0.293 µM); Cmax [10]: 390 ng/mL; Vd [11]: 1.7 L/kg; Kp [12]: 0.32; Vd [13]: 1.6 L/kg; Cmax [14]: 310 ng/mL; bioavailability [15]: 60%; Solubility [16]: 0.0573 µg/mL (≈ 0.164 µM); ED50 [17]: 20 µmol/kg; half-life [18]: 1.7 h; Cmax [19]: 250 ng/mL; half-life [20]: 1.9 h; Activity [21]: Active
COc1ccc2c(c1)CCC2NC(=O)Nc1cccc2[nH]ncc12 (stereo unspecified) | 40 nM | 
O=C(Nc1cccc2[nH]ncc12)NC1CCc2cccnc21 (stereo unspecified) | 1350 nM | 
CC(C)(C)c1ccc2c(c1)CC(NC(=O)Nc1cccc3[nH]ncc13)C2 (stereo unspecified) | 10 nM | 
CC(C)(C)c1cccc2c1CCC2NC(=O)Nc1cccc2[nH]ncc12 (stereo unspecified) | 14 nM | 

Now from value to molecule, other results behind:

IC50 [1] | SMILES | also measured
7 nM | CN1CCC(NC(=O)Nc2cccc3[nH]ncc23)c2ccc(C(F)(F)F)cc21 (stereo unspecified) | 
4 nM | O=C(Nc1cccc2[nH]ncc12)NC1CCc2cc(C3CC3)ccc21 (stereo unspecified) | 
10 nM | O=C(Nc1cccc2[nH]ncc12)NC1CCc2cc(Cl)ccc21 (stereo unspecified) | 
10 nM | O=C(Nc1cccc2[nH]ncc12)NC1CCc2c1cccc2N1CCCCC1 (stereo unspecified) | 
5 nM | O=C(Nc1cccc2[nH]ncc12)NC1CCc2c(C3CC3)cccc21 (stereo unspecified) | 
5 nM | O=C(Nc1cccc2[nH]ncc12)NC1CCc2c1ccc(F)c2N1CCOCC1 (stereo unspecified) | 
7 nM | O=C(Nc1cccc2[nH]ncc12)NC1CCc2c1cccc2N1CCC(C(F)(F)F)CC1 (stereo unspecified) | 
3 nM | O=C(Nc1cccc2[nH]ncc12)NC1CCc2cc(C(F)(F)F)ccc21 (stereo unspecified) | 
10 nM | O=C(Nc1cccc2[nH]ncc12)NC1CCc2c1cccc2C(F)(F)F (stereo unspecified) | 
9 nM | O=C(Nc1cccc2[nH]ncc12)NC1CCc2cc(Br)ccc21 (stereo unspecified) | 
